Measurements published in patent US20160101072A1, “Therapeutic uses of enzyme inhibitors” (Proximagen Limited, priority 2013, published 2016).
Marks after values point to notes of the source that are not given here.

What was measured:
[1] = tested on: diaphragms of mdx mice; experiment: H & E staining of diaphragm sections of mdx mice (inflammatory infiltrates); type: in vivo, mouse; settings: 20 mg/kg po once per day, 6 weeks, 12 week old mdx mice
From the text: (§1) The most studied animal model for DMD is the mdx mouse. This was first described by Bulfield et al (Proc. Natl. Acad. Sci. USA, 1984, 81:1189-1192). It has a point mutation within its dystrophin gene, and as a result the mouse has no functional dystrophin in its muscles. […] As it ages, certain muscle types (including the diaphragm) show weakness and increased fibrosis. […] This provides a quantitative framework for studying the pathogenesis of dystrophy (Stedman et al, Nature, 1991, 352, 536-539).
(§2) 12 week old mdx mice were treated with benserazide (20 mg/kg, po, once per day) or vehicle (water, once per day), in groups of 8 mice. After 6 weeks of treatment, diaphragms of the mice were collected and flash frozen in liquid nitrogen-cooled isopentane. The sections were stored on slides at −20° C. until required.
(§3) Hematoxylin and eosin (H & E) staining was used to show cytoplasmic, nuclear, and extracellular matrix features. Hematoxylin stains nucleic acids, and eosin stains proteins nonspecifically. Staining of F4/80 antigen (a glycoprotein expressed by murine macrophages) was used to show macrophages.

[2] = tested on: macrophages; experiment: Staining of murine F4/80 antigen in diaphragm sections of mdx mice (macrophage infiltration); type: in vivo, mouse; settings: 20 mg/kg po once per day, 6 weeks, 12 week old mdx mice
From the text: as §1, §2, §3

[3] = tested on: CD11b+ myeloid cells; experiment: Cell sorting: recruitment of CD11b+ myeloid cells into muscles of mdx mice; type: in vivo, mouse; settings: mdx mice muscle; for % change compared to vehicle (CD11b+ myeloid cells) / % of viable cells (CD11b+ myeloid cells): 4 weeks
From the text: (§4) In this example, labelled antibodies were used to assess infiltration of inflammatory myeloid and lymphoid cells into muscles of mdx mice following treatment of the mice with different doses of the glucocorticoid prednisolone, and the VAP-1 inhibitors carbidopa and benserazide. CD11b is a transmembrane glycoprotein which is expressed on the surface of granulocytes (including neutrophils and eosinophils), monocytes, NK cells, dendritic cells, tissue macrophages and subsets of T and B cells. Labelled antibody to CD11b was used to assess infiltration of inflammatory myeloid cells into muscles of mdx mice. Labelled antibody to Ly6C was used to assess infiltration of pro- and anti-inflammatory monocytes into muscles of mdx mice. Labelled antibody to CD4 and CD8a antigen was used to assess infiltration of Th cells (CD4^+CD8^-) and double negative (CD4^-CD8^-) T cells into muscles of mdx mice. A total of a ninety C57BU10ScSn-Dmdmdx/J male mice, 3 weeks of age (+/-3days), were transferred to the in vivo research laboratory in Bar Harbor, Me. Additional ten […] male mice 3 weeks of age (+/-3 days) were also transferred and served as a wild-type control group. The mice were ear notched for identification and housed in ventilated polysulfone cages with HEPA filtered air at a density of 3-4 mice per cage. The animal room was lit entirely with artificial fluorescent lighting on controlled 12 hour light/dark cycle (6 a.m. to 6 p.m. light). […] The animal room was set for 15 air exchanges per hour. Filtered tap water acidified to a pH of 2.8 to 3.2 was provided ad libitum. […] Prior to study initiation, mice were acclimated for 3 days. Mice were tested for grip strength and in the open field at ages 25 and 26 days, and drug regimen was initiated at age 27 days. Mice were monitored twice weekly for clinical observations and body weights. […] 24 hours after the second open field tests, blood was collected by retro-orbital bleeding, and mice were humanely euthanized by CO2 asphyxiation. One triceps surae was collected fresh and processed for immune cell sorting, one tibialis anterior was preserved in RNALater for RNA extraction, one whole hind limb and the diaphragm were fixed in 2% paraformaldehyde overnight at 4° C. for paraffin embedding and histology stains. For immune cell sorting, muscle samples were enzymatically and mechanically dissociated following manufacturer instructions (Skeletal Muscle Dissociation KitCatalog no. 130-098-305, Miltenyi Biotec). Cells were stained with the following antibodies: [table] Stained cells were analyzed on a BD LSR II cytometer and counts of different populations were expressed in percentage of the number of live cells counted.

[4] = tested on: CD11b+Ly6Chigh profibrotic myeloid cells (Ly6C+ monocytes); experiment: Cell sorting: recruitment of CD11b+Ly6Chigh profibrotic myeloid cells into muscles of mdx mice; type: in vivo, mouse; settings: mdx mice muscle; for % change compared to vehicle (CD11b+Ly6Chigh profibrotic myeloid cells) / % of viable cells (CD11b+Ly6Chigh profibrotic myeloid cells): 4 weeks
From the text: as §4

[5] = tested on: CD11b+Ly6Clow anti-fibrotic myeloid cells (Ly6C- monocytes); experiment: Cell sorting: recruitment of CD11b+Ly6Clow anti-fibrotic myeloid cells into muscles of mdx mice; type: in vivo, mouse; settings: for % change compared to vehicle (CD11b+Ly6Clow anti-fibrotic myeloid cells) / % of viable cells (CD11b+Ly6Clow anti-fibrotic myeloid cells): 4 weeks, mdx mice muscle
From the text: as §4

[6] = tested on: CD11b+Ly6Chigh profibrotic : CD11b+Ly6Clow anti-fibrotic myeloid cells; experiment: Ratio of profibrotic to anti-fibrotic myeloid cells in mdx mouse muscle; type: in vivo; settings: both doses
From the text: In this example, labelled antibodies were used to assess infiltration of inflammatory myeloid and lymphoid cells into muscles of mdx mice following treatment of the mice with different doses of the glucocorticoid prednisolone, and the VAP-1 inhibitors carbidopa and benserazide. […] Labelled antibody to CD11b was used to assess infiltration of inflammatory myeloid cells into muscles of mdx mice. Labelled antibody to Ly6C was used to assess infiltration of pro- and anti-inflammatory monocytes into muscles of mdx mice. Labelled antibody to CD4 and CD8a antigen was used to assess infiltration of Th cells (CD4^+CD8^−) and double negative (CD4^−CD8^−) T cells into muscles of mdx mice.
A total of a ninety C57BU10ScSn-Dmdmdx/J male mice, 3 weeks of age (+/−3days), were transferred to the in vivo research laboratory in Bar Harbor, Me. Additional ten C57BU10ScSnJ male mice 3 weeks of age (+/−3 days) were also transferred and served as a wild-type control group. The mice were ear notched for identification and housed in ventilated polysulfone cages with HEPA filtered air at a density of 3-4 mice per cage. […]

[7] = tested on: lymphoid CD4+CD8- T cells; experiment: Cell sorting: recruitment of lymphoid CD4+CD8- T cells into muscles of mdx mice; type: in vivo, mouse; settings: mdx mice muscle
From the text: as §4

[8] = tested on: lymphoid CD4-CD8- (double negative, DN) T cells; experiment: Cell sorting: recruitment of lymphoid CD4-CD8- (double negative, DN) T cells into muscles of mdx mice; type: in vivo, mouse; settings: mdx mice muscle
From the text: as §4

[9] = tested on: TNF mRNA; experiment: mRNA quantification (RT PCR) of TNF in muscles of mdx mice; type: in vivo, mouse
From the text: (§5) A total of a ninety C57BU10ScSn-Dmdmdx/J male mice, 3 weeks of age (+/-3days), were transferred to the in vivo research laboratory in Bar Harbor, Me. Additional ten […] male mice 3 weeks of age (+/-3 days) were also transferred and served as a wild-type control group. The mice were ear notched for identification and housed in ventilated polysulfone cages with HEPA filtered air at a density of 3-4 mice per cage. The animal room was lit entirely with artificial fluorescent lighting on controlled 12 hour light/dark cycle (6 a.m. to 6 p.m. light). […] The animal room was set for 15 air exchanges per hour. Filtered tap water acidified to a pH of 2.8 to 3.2 was provided ad libitum. […] Prior to study initiation, mice were acclimated for 3 days. Mice were tested for grip strength and in the open field at ages 25 and 26 days, and drug regimen was initiated at age 27 days. Mice were monitored twice weekly for clinical observations and body weights. […] 24 hours after the second open field tests, blood was collected by retro-orbital bleeding, and mice were humanely euthanized by CO2 asphyxiation. One triceps surae was collected fresh and processed for immune cell sorting, one tibialis anterior was preserved in RNALater for RNA extraction, one whole hind limb and the diaphragm were fixed in 2% paraformaldehyde overnight at 4° C. for paraffin embedding and histology stains. Total RNAs were extracted with a modification of the Trizol method, reverse transcribed, and mRNAs of TGFβ, and the following inflammation markers were quantified by the SYBR green method with GAPDH as a normalizer: […]

[10] = tested on: Lgals3 mRNA; experiment: mRNA quantification (RT PCR) of Lgals3 in muscles of mdx mice; type: in vivo, mouse
From the text: as §5

[11] = tested on: CD53 mRNA; experiment: mRNA quantification (RT PCR) of CD53 in muscles of mdx mice; type: in vivo, mouse
From the text: as §5

[12] = tested on: CD48 mRNA; experiment: mRNA quantification (RT PCR) of CD48 in muscles of mdx mice; type: in vivo, mouse
From the text: as §5

[13] = tested on: CD11b mRNA; experiment: mRNA quantification (RT PCR) of CD11b in muscles of mdx mice; type: in vivo, mouse
From the text: as §5

[14] = tested on: TGFβ mRNA; experiment: mRNA quantification (RT PCR) of pro-fibrotic growth factor TGFβ in muscles of mdx mice; type: in vivo, mouse
From the text: as §5

[15] = tested on: IL-6 mRNA; experiment: mRNA quantification (RT PCR) of IL-6 in muscles of mdx mice; type: in vivo, mouse; settings: mdx mice muscle
From the text: as §5

[16] = tested on: Mpeg1 mRNA; experiment: mRNA quantification (RT PCR) of Mpeg1 in muscles of mdx mice; type: in vivo, mouse; settings: mdx mice muscle
From the text: as §5

[17] = tested on: Ly6C1 mRNA; experiment: mRNA quantification (RT PCR) of Ly6C1 in muscles of mdx mice; type: in vivo, mouse; settings: mdx mice muscle
From the text: as §5

[18] = tested on: eosinophils; settings: DMD / mdx dystrophic muscle, previous studies; cited from earlier work
[19] = tested on: T cells; settings: correlated with reduction in muscle necrosis and fibrosis; very early studies; cited from earlier work
[20] = doses as in the table (carbidopa 100, benserazide 20 mg/kg po twice/day; prednisolone 1 mg/kg ip once/day)
[21] = 20 mg/kg po twice/day, mdx mice muscle, GAPDH as normalizer
[22] = treatment alone, mdx mouse muscle

## NC(CO)C(=O)NNCc1ccc(O)c(O)c1O (stereo not drawn) [Benserazide]
[1]
  reduction in inflammatory infiltrates compared to vehicle (H & E staining): ~50%
[2]
  reduction in macrophage infiltration compared to vehicle (F4/80 staining): ~50%
[3]; 7 mg/kg po twice/day
  % change compared to vehicle (CD11b+ myeloid cells): −13.7%
  % of viable cells (CD11b+ myeloid cells): 31.4%
[3]; 20 mg/kg po twice/day
  % change compared to vehicle (CD11b+ myeloid cells): −32.4%
  % of viable cells (CD11b+ myeloid cells): 24.6* %
[3]; higher dose of benserazide
  reduction of CD11b+ myeloid cell recruitment compared with vehicle: approximately one-third
[4]; 7 mg/kg po twice/day
  % change compared to vehicle (CD11b+Ly6Chigh profibrotic myeloid cells): −11.5%
  % of viable cells (CD11b+Ly6Chigh profibrotic myeloid cells): 6.49%
[4]; 20 mg/kg po twice/day
  % change compared to vehicle (CD11b+Ly6Chigh profibrotic myeloid cells): −26.9%
  % of viable cells (CD11b+Ly6Chigh profibrotic myeloid cells): 5.36%
[4]; both doses
  effect on recruitment of profibrotic myeloid cells compared with vehicle: little, if any, statistically significant effect
[5]; 7 mg/kg po twice/day
  % change compared to vehicle (CD11b+Ly6Clow anti-fibrotic myeloid cells): −16.5%
  % of viable cells (CD11b+Ly6Clow anti-fibrotic myeloid cells): 22.7%
[5]; 20 mg/kg po twice/day
  % change compared to vehicle (CD11b+Ly6Clow anti-fibrotic myeloid cells): −27.9%
  % of viable cells (CD11b+Ly6Clow anti-fibrotic myeloid cells): 19.6* %
[5]; higher dose of benserazide, statistically significant
  inhibition of recruitment of anti-fibrotic myeloid cells compared with vehicle: 27.9%
[6]
  relative levels of pro- and anti-fibrotic myeloid cells: not affected
[7]; 20 mg/kg po twice/day, 4 weeks
  % change compared to vehicle (lymphoid CD4+CD8- T cells): −37.0%
  % of viable cells (lymphoid CD4+CD8- T cells): 9.2* %
[7]; [20]
  reduction of recruitment of lymphoid CD4+CD8- T cells compared with vehicle: over 50%
[8]; 20 mg/kg po twice/day, 4 weeks
  % change compared to vehicle (lymphoid CD4-CD8- DN T cells): −44.8%
  % of viable cells (lymphoid CD4-CD8- DN T cells): 18** %
[8]; [20]
  reduction of recruitment of lymphoid DN T cells compared with vehicle: over 50%
[9]; [21]
  TNF mRNA level: 0.79
[9]; [22]
  effect on the level of TNF mRNA: No significant effect
[10]; [21]
  Lgals3 mRNA level: 0.95
[10]; [22]
  effect on the level of Lgals3 mRNA: no significant effect
[11]; [21]
  CD53 mRNA level: 0.95
[11]; [22]
  effect on the level of CD53 mRNA: not significantly affected
[12]; [21]
  CD48 mRNA level: 0.85
[12]; [22]
  effect on the level of CD48 mRNA: no significant effect
[13]; [21]
  CD11b mRNA level: 1.12
[13]; [22]
  effect on the level of CD11b mRNA: not significantly affected
[14]; 20 mg/kg po twice/day, mdx mice muscle
  % change compared to vehicle (TGFβ mRNA): −34.7%
[14]; [21]
  TGFβ mRNA: 0.79
[14]; treatment alone, muscle of mdx mice
  reduction of the TGFβ mRNA level (fraction in words): over a third
[15]
  effect on IL-6 mRNA level: No effects
[16]
  effect on Mpeg1 mRNA level: No effects
[17]
  effect on Ly6C1 mRNA level: No effects

## C[C@]12C=CC(=O)C=C1CC[C@@H]1[C@@H]2C(=O)C[C@@]2(C)[C@H]1CC[C@]2(O)C(=O)CO [Prednisone, prednisone]
[18]
  effect on eosinophil infiltration: reduce eosinophil infiltration
[19]
  effect on T cells in DMD patients: reduction in T cells
